From patent US10315992B2, “Tetracyline compounds” (Tetraphase Pharmaceuticals, Inc., priority 2012, dated 2019)
In brackets after ≈: the same amount, converted by molar mass. Read-outs that look alike come from different tables or passages of the source.

What was measured:
[1] = test system: Staphylococcus aureus SA101 (ATCC 29213, MSSA); assay: MIC assay, SA101; assay type: cell-based
[2] = test system: Staphylococcus epidermidis SE164 (ATCC 12228); assay: MIC assay, SE164; assay type: cell-based; conditions: ATCC12228, read-out: MIC SE 164 12228
[3] = test system: Streptococcus pneumoniae SP106 (ATCC 49619); assay: MIC assay, SP106; assay type: cell-based
[4] = test system: Streptococcus pyogenes SP312 (2009 clinical isolate, tet(M)); assay: MIC assay, SP312; assay type: cell-based
[5] = test system: Escherichia coli EC878 (MG1655 tolC::kan); assay: microbe, parasite or virus in culture; assay type: cell-based
[6] = test system: Pseudomonas aeruginosa PA111 (ATCC 27853); assay: MIC assay, PA111; assay type: cell-based
[7] = test system: Pseudomonas aeruginosa PA555 (ATCC BAA-47, PAO1); assay: MIC assay, PA555; assay type: cell-based
[8] = test system: Pseudomonas aeruginosa PA556 (multiple-Mex efflux pump knockout strain); assay: microbe, parasite or virus in culture; assay type: cell-based
[9] = test system: Pseudomonas aeruginosa PA669 (2009 tracheal aspirate isolate); assay: MIC assay, PA669; assay type: cell-based
[10] = test system: Pseudomonas aeruginosa PA693 (2009 corneal scraping isolate); assay: MIC assay, PA693; assay type: cell-based
[11] = test system: Pseudomonas aeruginosa PA1145 (strain used in murine pneumonia model); assay: MIC assay, PA1145; assay type: cell-based
[12] = test system: Acinetobacter baumannii AB110 (ATCC 19606); assay: MIC assay, AB110; assay type: cell-based
[13] = test system: Klebsiella pneumoniae KP153 (tet(A), MDR, ESBL+)
[14] = test system: Klebsiella pneumoniae KP109 (ATCC 13883); assay: MIC assay, KP109; conditions: K. pneumoniae ATCC 13883; Table 4
[15] = test system: KP 194 7E+05; assay: MIC assay, KP194; conditions: Table 5
Experimental: Minimum Inhibitory Concentration (MIC) Assay
MICs were determined according to the Clinical and Laboratory Standards Institute (CLSI) guidances (e.g., CLSI. Performance standards for antimicrobial susceptibility testing; nineteenth information supplement. CLSI document M100-S19, CLSI, 940 West Valley Road, Suite 1400, Wayne, Pa. 19087-1898, USA, 2009). Briefly, frozen bacterial strains were thawed and subcultured onto Mueller Hinton Broth (MHB) or other appropriate media (Streptococcus requires blood and Haemophilus requires hemin and NAD). Following incubation overnight, the strains were subcultured onto Mueller Hinton Agar and again incubated overnight. […] Isolated colonies were selected to prepare a starting inoculum equivalent to a 0.5 McFarland standard. […] Test compounds were prepared by dilution in sterile water to a final concentration of 5.128 mg/mL. Antibiotics (stored frozen, thawed and used within 3 hours of thawing) and compounds were further diluted to the desired working concentrations.
The assays were run as follows. Fifty μL of MHB was added to wells 2-12 of a 96-well plate. One hundred μL of appropriately diluted antibiotics was added to well 1. Fifty μL of antibiotics was removed from well 1 and added to well 2 and the contents of well 2 mixed by pipetting up and down five times. Fifty μL of the mixture in well 2 was removed and added to well 3 and mixed as above. Serial dilutions were continued in the same manner through well 12. Fifty μL was removed from well 12 so that all contained 50 μL. Fifty μL of the working inoculum was then added to all test wells. A growth control well was prepared by adding 50 μL of working inoculum and 50 μL of MHB to an empty well. The plates were then incubated at 37° C. overnight, removed from the incubator and each well was read on a plate reading mirror. The lowest concentration (MIC) of test compound that inhibited the growth of the bacteria was recorded.

[16] = test system: Burkholderia cenocepacia BC240 (cystic fibrosis isolate, MDR); assay: MIC assay, BC240; assay type: cell-based; conditions: Burkholderia cenocepacia, control compounds
[17] = test system: Klebsiella pneumoniae KP109 (ATCC 13883)
[18] = read-out: MIC SA 101 292 13, S. aureus ATCC 29213, MSSA, Table 6
[19] = read-out: MIC SA 101 29213, S. aureus ATCC 29213, MSSA, Table 4
[20] = read-out: MIC SA 101 29213, S. aureus ATCC 29213, MSSA, Table 5
[21] = read-out: MIC SA 101 29213, S. aureus ATCC 29213, MSSA, Table 7
[22] = read-out: MIC SA 101 29213, control compounds
[23] = read-out: MIC SA 101 29213, control compounds, numeric
[24] = ATCC49619, read-out: MIC SP 106 49619
[25] = MG1655, read-out: MIC EC 878 toIC, E. coli MG1655 tolC::kan, Table 6
[26] = MG1655, read-out: MIC EC 878 toIC, E. coli MG1655 tolC::kan, Table 7
[27] = MG1655, read-out: MIC EC 878 toIC, control compounds
[28] = MG1655, read-out: MIC EC 878 tolC, control compounds, numeric
[29] = ATCC27853, read-out: MIC PA 111 27853
[30] = ATCC19606, read-out: MIC AB 110 19606
[31] = K. pneumoniae tet(A), MDR, ESBL+, Table 4
[32] = K. pneumoniae tet(A), MDR, ESBL+, Table 5

CN(C)c1cc(NC(=O)CNC(C)(C)C)c(O)c2c1C[C@H]1C[C@H]3[C@H](N(C)C)C(O)=C(C(N)=O)C(=O)[C@@]3(O)C(O)=C1C2=O [Tigecycline, tigecycline]
MIC [1, 18]: 0.063 µg/mL (≈ 0.108 µM)
MIC [1, 19]: 0.063 µg/mL (≈ 0.108 µM)
MIC [1, 20]: 0.0625 µg/mL (≈ 0.107 µM)
MIC [1, 21]: 0.06 µg/mL (≈ 0.102 µM)
MIC [1, 22]: 0.06 µg/mL (≈ 0.102 µM)
MIC [1, 23]: 0.06 µg/mL (≈ 0.102 µM)
MIC [2]: 0.125 µg/mL (≈ 0.213 µM)
MIC [3, 24]: 0.016 µg/mL (≈ 0.0273 µM)
MIC ([4]; read-out: MIC SP 312): 0.02 µg/mL (≈ 0.0341 µM)
MIC ([4]; read-out: MIC SP 312 tet M): 0.015 µg/mL (≈ 0.0256 µM)
MIC [5, 25]: 0.031 µg/mL (≈ 0.0529 µM)
MIC [5, 26]: 0.03 µg/mL (≈ 0.0512 µM)
MIC [5, 27]: 0.03 µg/mL (≈ 0.0512 µM)
MIC [5, 28]: 0.03 µg/mL (≈ 0.0512 µM)
MIC [6, 29]: 8 µg/mL (≈ 13.7 µM)
MIC [7]: 16 µg/mL (≈ 27.3 µM)
MIC ([7]; read-out: MIC PA5 55 BAA- 47): 16 µg/mL (≈ 27.3 µM)
MIC ([7]; read-out: MIC PA 555): 16 µg/mL (≈ 27.3 µM)
MIC ([7]; read-out: MIC PA 555 BAA- 47): 16 µg/mL (≈ 27.3 µM)
MIC ([7]; read-out: MIC PA 555 BAA-47): 16 µg/mL (≈ 27.3 µM)
MIC [8]: 0.25 µg/mL (≈ 0.427 µM)
MIC ([8]; read-out: MIC PA 556): 0.25 µg/mL (≈ 0.427 µM)
MIC [9]: 32 µg/mL (≈ 54.6 µM)
MIC ([9]; read-out: MIC PA 669): 32 µg/mL (≈ 54.6 µM)
MIC [10]: 32 µg/mL (≈ 54.6 µM)
MIC ([10]; read-out: MIC PA 693): 33 µg/mL (≈ 56.3 µM)
MIC [11]: 33 µg/mL (≈ 56.3 µM)
MIC ([11]; read-out: MIC PA 1145): 16 µg/mL (≈ 27.3 µM)
MIC ([11]; read-out: MIC PA 1145 Vivi- source): 16 µg/mL (≈ 27.3 µM)
MIC [12, 30]: 0.25 µg/mL (≈ 0.427 µM)
MIC KP 153 tetA [13, 31]: 1 µg/mL (≈ 1.71 µM)
MIC KP 153 tetA [13, 32]: 1 µg/mL (≈ 1.71 µM)
MIC KP 109 13883 [14]: 0.125 µg/mL (≈ 0.213 µM)
MIC KP 194 7E+05 [15]: 8 μg/mL

CN(C)[C@@H]1C(O)=C(C(N)=O)C(=O)[C@@]2(O)C(O)=C3C(=O)c4c(O)cccc4C[C@H]3C[C@@H]12 [Sancycline, sancycline]
MIC [1, 18]: 0.5 µg/mL (≈ 1.21 µM)
MIC [1, 19]: 0.5 µg/mL (≈ 1.21 µM)
MIC [1, 20]: 0.5 µg/mL (≈ 1.21 µM)
MIC [1, 21]: 0.5 µg/mL (≈ 1.21 µM)
MIC [1, 22]: 0.5 µg/mL (≈ 1.21 µM)
MIC [1, 23]: 0.5 µg/mL (≈ 1.21 µM)
MIC [2]: 4 µg/mL (≈ 9.65 µM)
MIC [3, 24]: 0.25 µg/mL (≈ 0.603 µM)
MIC ([4]; read-out: MIC SP 312): 4 µg/mL (≈ 9.65 µM)
MIC ([4]; read-out: MIC SP 312 tet M): 4 µg/mL (≈ 9.65 µM)
MIC [5, 25]: 1 µg/mL (≈ 2.41 µM)
MIC [5, 26]: 1 µg/mL (≈ 2.41 µM)
MIC [5, 27]: 1 µg/mL (≈ 2.41 µM)
MIC [5, 28]: 1 µg/mL (≈ 2.41 µM)
MIC [6, 29]: 33 µg/mL (≈ 79.6 µM)
MIC [7]: 32 µg/mL (≈ 77.2 µM)
MIC ([7]; read-out: MIC PA5 55 BAA- 47): 32 µg/mL (≈ 77.2 µM)
MIC ([7]; read-out: MIC PA 555): 32 µg/mL (≈ 77.2 µM)
MIC ([7]; read-out: MIC PA 555 BAA- 47): 32 µg/mL (≈ 77.2 µM)
MIC ([7]; read-out: MIC PA 555 BAA-47): 32 µg/mL (≈ 77.2 µM)
MIC [8]: 1 µg/mL (≈ 2.41 µM)
MIC ([8]; read-out: MIC PA 556): 1 µg/mL (≈ 2.41 µM)
MIC [9]: 33 µg/mL (≈ 79.6 µM)
MIC ([9]; read-out: MIC PA 669): 33 µg/mL (≈ 79.6 µM)
MIC [10]: 33 µg/mL (≈ 79.6 µM)
MIC ([10]; read-out: MIC PA 693): 33 µg/mL (≈ 79.6 µM)
MIC [11]: 33 µg/mL (≈ 79.6 µM)
MIC ([11]; read-out: MIC PA 1145): 32 µg/mL (≈ 77.2 µM)
MIC [12, 30]: 0.25 µg/mL (≈ 0.603 µM)
MIC KP 153 tetA [13, 31]: 32 µg/mL (≈ 77.2 µM)
MIC KP 153 tetA [13, 32]: 32 µg/mL (≈ 77.2 µM)
MIC KP 109 13883 [14]: 8 µg/mL (≈ 19.3 µM)
MIC KP 194 7E+05 [15]: 32 μg/mL

CN(C)c1ccc(O)c2c1C[C@H]1C[C@H]3[C@H](N(C)C)C(O)=C(C(N)=O)C(=O)[C@@]3(O)C(O)=C1C2=O [Minocycline, minocycline]
MIC ([1]; S. aureus ATCC 29213, MSSA, Table 4, read-out: MIC SA 101 29213): 0.063 µg/mL (≈ 0.138 µM)
MIC ([1]; S. aureus ATCC 29213, MSSA, Table 5, read-out: MIC SA 101 29213): 0.0625 µg/mL (≈ 0.137 µM)
MIC ([1]; S. aureus ATCC 29213, MSSA, Table 6, read-out: MIC SA 101 292 13): 0.063 µg/mL (≈ 0.138 µM)
MIC ([1]; S. aureus ATCC 29213, MSSA, Table 7, read-out: MIC SA 101 29213): 0.06 µg/mL (≈ 0.131 µM)
MIC ([1]; control compounds, numeric, read-out: MIC SA 101 29213): 0.06 µg/mL (≈ 0.131 µM)
MIC ([1]; control compounds, read-out: MIC SA 101 29213): 0.06 µg/mL (≈ 0.131 µM)
MIC ([3]; ATCC49619, S. pneumoniae ATCC 49619, Table 4, read-out: MIC SP 106 49619): 0.015 µg/mL (≈ 0.0328 µM)
MIC ([4]; S. pyogenes tet(M), Table 5, read-out: MIC SP 312): 16 µg/mL (≈ 35 µM)
MIC ([4]; S. pyogenes tet(M), Table 6, read-out: MIC SP 312 tet M): 16 µg/mL (≈ 35 µM)
MIC [5, 25]: 0.25 µg/mL (≈ 0.546 µM)
MIC [5, 26]: 0.25 µg/mL (≈ 0.546 µM)
MIC [5, 27]: 0.25 µg/mL (≈ 0.546 µM)
MIC [5, 28]: 0.25 µg/mL (≈ 0.546 µM)
MIC ([6]; ATCC27853, P. aeruginosa ATCC 27853, Table 4, read-out: MIC PA 111 27853): 16 µg/mL (≈ 35 µM)
MIC ([7]; P. aeruginosa ATCC BAA-47 PAO1, Table 5, read-out: MIC PA 555): 16 µg/mL (≈ 35 µM)
MIC ([7]; P. aeruginosa ATCC BAA-47 PAO1, Table 6, read-out: MIC PA5 55 BAA- 47): 16 µg/mL (≈ 35 µM)
MIC ([7]; P. aeruginosa ATCC BAA-47 PAO1, Table 7, read-out: MIC PA 555 BAA- 47): 16 µg/mL (≈ 35 µM)
MIC ([7]; control compounds, c1, strain PA555 inferred, read-out: MIC): 16 µg/mL (≈ 35 µM)
MIC ([7]; control compounds, numeric, read-out: MIC PA 555 BAA-47): 16 µg/mL (≈ 35 µM)
MIC ([9]; control compounds, c4, strain PA669 inferred, read-out: MIC): 33 µg/mL (≈ 72.1 µM)
MIC ([9]; control compounds, numeric, read-out: MIC PA 669): 33 µg/mL (≈ 72.1 µM)
MIC ([10]; control compounds, c5, strain PA693 inferred, read-out: MIC): 33 µg/mL (≈ 72.1 µM)
MIC ([10]; control compounds, numeric, read-out: MIC PA 693): 33 µg/mL (≈ 72.1 µM)
MIC ([11]; control compounds, c6, strain PA1145 inferred, read-out: MIC): 33 µg/mL (≈ 72.1 µM)
MIC ([11]; control compounds, numeric, read-out: MIC PA 1145): 32 µg/mL (≈ 69.9 µM)
MIC ([12]; ATCC19606, A. baumannii ATCC 19606, Table 4, read-out: MIC AB 110 19606): 0.063 µg/mL (≈ 0.138 µM)
MIC ([16]; c10, strain BC240 inferred, read-out: MIC): 8 µg/mL (≈ 17.5 µM)
MIC ([16]; numeric, read-out: MIC BC 240): 8 µg/mL (≈ 17.5 µM)
MIC KP 109 13883 [17]: 1 µg/mL (≈ 2.19 µM)
MIC KP 153 tetA [13]: 8 µg/mL (≈ 17.5 µM)
MIC KP 194 7E+05 [15]: 32 μg/mL
